Assay results published in patent publication US20070225388A1, “Porous Bodies and Method of Production Thereof” (priority 2004, published 2007).

Assay: Dispersion of material on exposure to aqueous medium (visual)
Type: physicochemical
Details: dye not incorporated into a porous body

CCNc1ccc2ccccc2c1N=Nc1ccc(N=Nc2ccccc2)cc1 [Fat red 7B dye]
dispersion or solubility of the dye alone in water: particles of dye remained at the bottom of the vessel
